Test results published in patent US20090298834A1, “4-(AMINOMETHYL)CYCLOHEXANAMINE DERIVATIVES AS CALCIUM CHANNEL BLOCKERS” (priority 2008, published 2009).
pIC50: −log10 of the molar value.

Key:
[1] = target: T1, human α1H T-type channels (Homo sapiens, UniProt O95180); assay: T-type calcium channel block, whole cell patch clamp (α1H); type: cell-based; conditions: HEK cells stably expressing human α1H; mainly non-inactivated protocol; values above 10 μM represented as 10 μM
T1 construct: expressed in transfected cells; host or cells: HEK 293
T1 sequence (O95180 whole entry): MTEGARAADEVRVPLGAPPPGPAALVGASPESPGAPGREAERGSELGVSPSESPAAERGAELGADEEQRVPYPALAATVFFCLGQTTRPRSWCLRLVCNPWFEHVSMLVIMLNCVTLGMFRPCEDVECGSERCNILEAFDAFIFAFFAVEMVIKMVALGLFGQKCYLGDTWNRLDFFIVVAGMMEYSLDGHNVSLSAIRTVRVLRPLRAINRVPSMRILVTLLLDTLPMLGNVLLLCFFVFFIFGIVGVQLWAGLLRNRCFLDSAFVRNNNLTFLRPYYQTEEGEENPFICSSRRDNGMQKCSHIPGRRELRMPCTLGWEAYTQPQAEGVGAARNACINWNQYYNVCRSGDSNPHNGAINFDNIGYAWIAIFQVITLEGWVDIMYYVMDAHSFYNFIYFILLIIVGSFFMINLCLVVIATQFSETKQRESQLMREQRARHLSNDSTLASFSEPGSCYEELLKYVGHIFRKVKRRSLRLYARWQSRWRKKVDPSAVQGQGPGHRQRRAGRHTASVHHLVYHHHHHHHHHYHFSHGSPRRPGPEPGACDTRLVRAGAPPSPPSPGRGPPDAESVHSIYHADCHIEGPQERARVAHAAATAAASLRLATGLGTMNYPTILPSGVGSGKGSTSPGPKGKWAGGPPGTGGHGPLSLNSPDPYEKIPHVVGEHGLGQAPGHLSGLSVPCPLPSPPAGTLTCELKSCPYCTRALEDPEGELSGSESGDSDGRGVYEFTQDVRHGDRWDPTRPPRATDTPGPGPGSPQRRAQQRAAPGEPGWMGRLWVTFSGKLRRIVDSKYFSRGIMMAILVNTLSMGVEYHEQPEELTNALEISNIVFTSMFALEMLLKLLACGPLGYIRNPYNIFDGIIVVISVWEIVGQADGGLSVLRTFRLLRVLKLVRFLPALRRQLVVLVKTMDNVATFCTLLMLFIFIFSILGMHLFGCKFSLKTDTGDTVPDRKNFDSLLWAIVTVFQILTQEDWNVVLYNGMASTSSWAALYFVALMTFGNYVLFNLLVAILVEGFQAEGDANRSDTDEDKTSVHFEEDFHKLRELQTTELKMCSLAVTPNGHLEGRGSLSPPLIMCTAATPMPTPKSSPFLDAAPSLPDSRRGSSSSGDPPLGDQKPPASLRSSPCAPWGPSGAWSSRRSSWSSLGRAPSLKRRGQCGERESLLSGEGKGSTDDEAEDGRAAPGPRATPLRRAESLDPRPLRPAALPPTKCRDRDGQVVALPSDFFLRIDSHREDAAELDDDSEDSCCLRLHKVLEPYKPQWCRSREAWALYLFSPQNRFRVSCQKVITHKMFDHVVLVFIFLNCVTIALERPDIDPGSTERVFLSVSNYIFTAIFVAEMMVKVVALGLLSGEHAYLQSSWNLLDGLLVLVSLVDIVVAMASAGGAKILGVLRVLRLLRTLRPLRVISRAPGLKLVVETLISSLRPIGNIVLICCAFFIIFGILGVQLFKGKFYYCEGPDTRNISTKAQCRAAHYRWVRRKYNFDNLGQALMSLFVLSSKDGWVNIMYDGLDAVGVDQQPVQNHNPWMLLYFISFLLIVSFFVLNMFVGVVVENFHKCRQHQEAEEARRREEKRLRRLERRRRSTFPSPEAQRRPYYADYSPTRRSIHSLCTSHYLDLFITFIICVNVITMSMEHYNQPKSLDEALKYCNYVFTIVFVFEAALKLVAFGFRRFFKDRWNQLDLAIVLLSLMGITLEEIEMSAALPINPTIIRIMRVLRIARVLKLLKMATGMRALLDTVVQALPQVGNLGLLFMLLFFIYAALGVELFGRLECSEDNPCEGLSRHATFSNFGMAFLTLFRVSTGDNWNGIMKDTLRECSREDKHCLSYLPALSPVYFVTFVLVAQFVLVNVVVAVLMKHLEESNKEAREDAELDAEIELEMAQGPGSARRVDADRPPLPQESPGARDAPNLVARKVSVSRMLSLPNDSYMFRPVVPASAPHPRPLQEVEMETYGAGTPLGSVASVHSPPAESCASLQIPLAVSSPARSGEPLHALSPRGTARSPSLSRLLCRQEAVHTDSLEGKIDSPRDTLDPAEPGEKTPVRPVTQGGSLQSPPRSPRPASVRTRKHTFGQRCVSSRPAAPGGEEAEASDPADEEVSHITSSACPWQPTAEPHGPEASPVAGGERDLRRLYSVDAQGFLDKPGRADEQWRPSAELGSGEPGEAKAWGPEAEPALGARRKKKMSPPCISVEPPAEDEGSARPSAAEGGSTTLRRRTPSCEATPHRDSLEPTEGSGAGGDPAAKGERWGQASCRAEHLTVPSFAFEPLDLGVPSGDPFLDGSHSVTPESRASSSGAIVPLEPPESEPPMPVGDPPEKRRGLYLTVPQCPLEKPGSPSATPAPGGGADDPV
Summary of the method: (§1)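 Resting block was measured mainly with the non-inactivated protocol: holding potential −110 mV, 1 s step to −100 mV, then a 50 ms test pulse at −40 mV. Recordings used stably transfected human α1G or α1H HEK293 lines, with compounds perfused in external solution containing 0.1-0.01% DMSO. IC50 values (μM) above 10 μM are reported as 10 μM.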

[2] = target: T2, human α1G T-type channels (Homo sapiens, UniProt O43497); assay: T-type calcium channel block, whole cell patch clamp (α1G); type: cell-based; conditions: HEK cells stably expressing human α1G; mainly non-inactivated protocol; values above 10 μM represented as 10 μM, values below 0.30 μM represented as 0.30 μM
T2 construct: expressed in transfected cells; host or cells: HEK 293
T2 sequence (O43497 whole entry): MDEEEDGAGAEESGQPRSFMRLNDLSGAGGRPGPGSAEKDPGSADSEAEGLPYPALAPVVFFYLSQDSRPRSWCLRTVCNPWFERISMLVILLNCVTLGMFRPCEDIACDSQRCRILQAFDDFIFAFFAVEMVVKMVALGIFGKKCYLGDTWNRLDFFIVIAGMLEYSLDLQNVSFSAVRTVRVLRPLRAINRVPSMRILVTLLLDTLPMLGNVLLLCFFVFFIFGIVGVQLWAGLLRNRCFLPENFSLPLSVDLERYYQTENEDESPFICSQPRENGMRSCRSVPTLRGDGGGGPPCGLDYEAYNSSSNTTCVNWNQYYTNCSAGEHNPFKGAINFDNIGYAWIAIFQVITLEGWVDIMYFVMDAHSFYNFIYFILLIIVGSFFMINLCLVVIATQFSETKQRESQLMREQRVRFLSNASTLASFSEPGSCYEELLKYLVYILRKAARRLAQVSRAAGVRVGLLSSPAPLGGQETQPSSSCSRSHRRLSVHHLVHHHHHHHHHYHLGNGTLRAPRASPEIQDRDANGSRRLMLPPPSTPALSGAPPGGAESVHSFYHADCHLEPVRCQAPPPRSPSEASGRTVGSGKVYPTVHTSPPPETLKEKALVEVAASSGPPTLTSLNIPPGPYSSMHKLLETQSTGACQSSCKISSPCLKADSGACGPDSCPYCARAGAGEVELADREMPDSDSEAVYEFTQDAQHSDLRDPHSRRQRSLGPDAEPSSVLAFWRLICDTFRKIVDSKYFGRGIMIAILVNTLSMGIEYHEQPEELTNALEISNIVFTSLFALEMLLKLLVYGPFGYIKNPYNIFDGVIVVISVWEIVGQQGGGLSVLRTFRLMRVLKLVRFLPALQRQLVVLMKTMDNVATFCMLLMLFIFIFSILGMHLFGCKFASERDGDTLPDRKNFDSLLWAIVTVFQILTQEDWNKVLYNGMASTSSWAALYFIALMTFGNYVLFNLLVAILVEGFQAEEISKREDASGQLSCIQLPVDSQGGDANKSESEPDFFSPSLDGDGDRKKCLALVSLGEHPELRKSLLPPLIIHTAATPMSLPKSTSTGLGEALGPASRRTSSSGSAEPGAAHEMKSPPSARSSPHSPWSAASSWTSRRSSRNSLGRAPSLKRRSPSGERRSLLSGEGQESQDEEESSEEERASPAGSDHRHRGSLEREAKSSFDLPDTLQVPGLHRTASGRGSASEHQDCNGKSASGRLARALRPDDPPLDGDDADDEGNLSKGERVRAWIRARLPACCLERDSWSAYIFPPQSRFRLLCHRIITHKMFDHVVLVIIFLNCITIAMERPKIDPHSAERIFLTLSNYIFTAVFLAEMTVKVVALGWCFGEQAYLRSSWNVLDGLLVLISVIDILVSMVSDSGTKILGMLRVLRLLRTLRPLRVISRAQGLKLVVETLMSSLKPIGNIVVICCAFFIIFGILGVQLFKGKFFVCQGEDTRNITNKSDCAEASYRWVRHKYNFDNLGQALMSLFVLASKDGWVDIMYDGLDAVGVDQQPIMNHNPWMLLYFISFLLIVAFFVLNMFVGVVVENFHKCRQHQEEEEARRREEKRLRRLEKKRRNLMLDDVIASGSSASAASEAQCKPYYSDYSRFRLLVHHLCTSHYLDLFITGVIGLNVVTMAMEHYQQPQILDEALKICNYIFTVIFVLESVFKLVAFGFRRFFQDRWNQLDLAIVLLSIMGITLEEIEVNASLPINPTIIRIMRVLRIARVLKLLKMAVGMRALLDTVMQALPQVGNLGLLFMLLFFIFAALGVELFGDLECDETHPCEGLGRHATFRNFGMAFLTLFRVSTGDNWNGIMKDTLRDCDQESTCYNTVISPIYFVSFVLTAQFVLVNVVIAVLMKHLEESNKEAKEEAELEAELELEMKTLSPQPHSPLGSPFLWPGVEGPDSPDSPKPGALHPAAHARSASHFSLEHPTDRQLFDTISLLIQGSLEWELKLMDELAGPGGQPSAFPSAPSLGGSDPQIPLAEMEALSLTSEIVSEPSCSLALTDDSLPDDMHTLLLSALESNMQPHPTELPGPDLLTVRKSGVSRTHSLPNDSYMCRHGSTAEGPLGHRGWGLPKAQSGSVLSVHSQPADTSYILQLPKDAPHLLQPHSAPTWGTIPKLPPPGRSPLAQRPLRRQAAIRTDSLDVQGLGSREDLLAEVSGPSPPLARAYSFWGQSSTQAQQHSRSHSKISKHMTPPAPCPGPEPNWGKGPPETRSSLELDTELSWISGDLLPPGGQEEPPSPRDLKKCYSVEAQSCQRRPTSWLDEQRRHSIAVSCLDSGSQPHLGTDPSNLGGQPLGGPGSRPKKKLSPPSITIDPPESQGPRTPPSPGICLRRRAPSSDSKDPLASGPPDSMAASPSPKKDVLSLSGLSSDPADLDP
Summary of the method: as §1

CC1CCCCN1C(=O)CN[C@H]1CC[C@H](CNC(=O)c2cc(C(F)(F)F)cc(C(F)(F)F)c2)CC1 (stereo partly drawn) [Compound 76, N-((trans-4-(2-(2-methylpiperidin-1-yl)-2-oxoethylamino)cyclohexyl)methyl)-3,5-bis(trifluoromethyl)benzamide]
pIC50 [1]: 6.21
pIC50 [2]: ≥ 6.52

C#CC(CC)(CC)NC(=O)CN[C@H]1CC[C@H](CNC(=O)c2cc(C(F)(F)F)cc(C(F)(F)F)c2)CC1 [Compound 62, N-((trans-4-(2-(3-ethylpent-1-yn-3-ylamino)-2-oxoethylamino)cyclohexyl)methyl)-3,5-bis(trifluoromethyl)benzamide]
pIC50 [1]: 6.51
pIC50 [2]: ≥ 6.52

N[C@H]1CCCC[C@H]1C(=O)N[C@H]1CC[C@H](CC(=O)Nc2cc(C(F)(F)F)cc(C(F)(F)F)c2)CC1 [Compound 122, (1R,2S)-2-amino-N-(trans-4-(2-(3,5-bis(trifluoromethyl)phenylamino)-2-oxoethyl)cyclohexyl)cyclohexanecarboxamide]
pIC50 [1]: 5.44
pIC50 [2]: 6.08

COc1cc(F)cc(C(=O)NC[C@H]2CC[C@H](NCC(=O)N3CCOCC3(C)C)CC2)c1 [Compound 208, N-(((1r,4r)-4-(2-(3,3-dimethylmorpholino)-2-oxoethylamino)cyclohexyl)methyl)-3-fluoro-5-methoxybenzamide]
pIC50 [1]: 5.36
pIC50 [2]: ≤ 5.00

CC1(C)COCCN1C(=O)CN[C@H]1CC[C@@H](CNC(=O)c2cc(F)cc(Cl)c2)CC1 [Compound 194, 3-chloro-N-(((1s,4s)-4-(2-(3,3-dimethylmorpholino)-2-oxoethylamino)cyclohexyl)methyl)-5-fluorobenzamide]
pIC50 [1]: 6.40
pIC50 [2]: 5.47

O=C(NC[C@H]1CC[C@H](NCc2c(O)cccc2F)CC1)c1cc(C(F)(F)F)cc(C(F)(F)F)c1 [Compound 32, N-((trans-4-(2-fluoro-6-hydroxybenzylamino)cyclohexyl)methyl)-3,5-bis(trifluoromethyl)benzamide]
pIC50 [1]: 5.46
pIC50 [2]: 6.48

CN(C(=O)CN[C@H]1CC[C@H](CNC(=O)c2cc(C(F)(F)F)cc(C(F)(F)F)c2)CC1)C1CCCC1 [Compound 59, N-((trans-4-(2-(cyclopentyl(methyl)amino)-2-oxoethylamino)cyclohexyl)methyl)-3,5-bis(trifluoromethyl)benzamide]
pIC50 [1]: 6.21
pIC50 [2]: ≥ 6.52

CC(C)(C)NC(=O)CN[C@H]1CC[C@@H](CNC(=O)c2cc(Cl)cc(Cl)c2)CC1 [Compound 187, N-(((1s,4s)-4-(2-(tert-butylamino)-2-oxoethylamino)cyclohexyl)methyl)-3,5-dichlorobenzamide]
pIC50 [1]: 7.22
pIC50 [2]: ≥ 6.52

CC(C)(C)NC(=O)CN[C@H]1CC[C@H](CNC(=O)c2cc(F)cc(Cl)c2)CC1 [Compound 201, N-(((1r,4r)-4-(2-(tert-butylamino)-2-oxoethylamino)cyclohexyl)methyl)-3-chloro-5-fluorobenzamide]
pIC50 [1]: 6.24
pIC50 [2]: 5.74

CN(C(=O)CN[C@H]1CC[C@H](CNC(=O)c2cc(F)cc(Cl)c2)CC1)C1(C)CCC1 [Compound 211, 3-chloro-5-fluoro-N-(((1r,4r)-4-(2-(methyl(1-methylcyclobutyl)amino)-2-oxoethylamino)cyclohexyl)methyl)benzamide]
pIC50 [1]: 6.27
pIC50 [2]: 5.93

CC(C)(C)[C@H](O)C(=O)NC1CCC(CC(=O)Nc2cc(C(F)(F)F)cc(C(F)(F)F)c2)CC1 (stereo in doubt) [Compound 108, (S)-N-((trans)-4-(2-(3,5-bis(trifluoromethyl)phenylamino)-2-oxoethyl)cyclohexyl)-2-hydroxy-3,3-dimethylbutanamide]
pIC50 [1]: 5.82
pIC50 [2]: 6.35

CC1(C)COCCN1C(=O)CN[C@H]1CC[C@H](CNC(=O)c2cc(F)cc(Cl)c2)CC1 [Compound 203, 3-chloro-N-(((1r,4r)-4-(2-(3,3-dimethylmorpholino)-2-oxoethylamino)cyclohexyl)methyl)-5-fluorobenzamide]
pIC50 [1]: 5.67
pIC50 [2]: 5.21
